# Source: patent US9375000B2, “Pesticidal arylpyrrolidines” (Bayer Intellectual Property GmbH, priority 2011, dated 2016)
# Tests used:
# Format in all cases: in vivo
# [1] = tested on: Tobacco Cutworm (Spodoptera litura) Larvae; assay: Tobacco cutworm (Spodoptera litura) larvae, sweet potato leaf dip test; conditions: dead larvae after 7 days
# Method: (§1) Unless not mentioned otherwise, the test solutions were prepared as follows:
# (§2) Solvent: 3 parts by weight Dimethylformamide
# (§3) Emulsifier: 1 part by weight Polyoxyethylene alkyl phenyl ether
# (§4) In order to make an appropriate formulation of an active compound, 1 part by weight of the active compound is mixed with the above mentioned amount of solvent and emulsifier and the mixture is diluted with water to a prescribed concentration. Ammonium salt or ammonium salt and penetration enhancer in a dosage of 1000 ppm are added to the desired concentration if necessary.
# Leaves of sweet potato were immersed in the test solution at the appropriate concentration, and the leaves were dried in air. The leaves were then placed in a petri dish having a diameter of 9 cm, and ten Spodoptera litura at third instar larvae were released therein. The petri dishes were placed in a temperature-controlled chamber at 25° C. After 2 days and 4 days more sweet potato leaves were added. After 7 days, the number of dead larvae was counted to calculate the insecticidal activity. An insecticidal activity of 100% means that all larvae were killed, whereas an insecticidal activity of 0% means that no larva was killed. In the current test, the results of two petri dishes for each treatment were averaged.
# [2] = tested on: Two-Spotted Spider Mite (Tetranychus urticae); assay: Two-spotted spider mite (Tetranychus urticae) spray test on kidney bean; conditions: after 7 days
# How it was run: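 Kidney bean plants at the two-leaf stage carried 50-100 adult mites and were sprayed one day later with compound in DMF/polyoxyethylene alkyl phenyl ether diluted in water. Ammonium salt and penetration enhancer at 1000 ppm were added if needed. Acaricidal activity (% mites killed) was scored after 7 days in a greenhouse.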
# Thrips palmi = Thrips palmi spray test (THRIPL); conditions: after 6 days
# Method: as §1, §2, §3, §4
# The compound solutions are sprayed to a cucumber seedling (Cucumis sativus). After drying, the treated plant is placed in a plastic stand. About 100 thrips-eggs (Thrips palmi) on a piece of filter paper are attached to the plant and covered with a cage to keep 100% humidity. The plant is kept in a room at 23° C. After 6 days activity in % is evaluated by feeding damage degree. An insecticidal activity of 100 means that there was no feeding damage, whereas an insecticidal activity of 0% means that there is no difference to the untreated control.
# [3] = tested on: Cucurbit Leaf Beetle (Aulacophora femoralis); assay: Cucurbit leaf beetle (Aulacophora femoralis) cucumber leaf dip test; conditions: after 7 days
# How it was run: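 Cucumber leaves dipped in compound formulated with DMF and polyoxyethylene alkyl phenyl ether, diluted in water, with ammonium salt or ammonium salt plus penetration enhancer at 1000 ppm added if necessary; dried leaves placed on sterilized soil with five second-instar larvae. Kept at 25° C; larval mortality counted after 7 days.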
# [4] = tested on: Larvae of Spodoptera litura; assay: Larvae of Spodoptera litura, method using artificial feeds; conditions: artificial feed, after 7 days
# How it was run: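 Compound formulated in dimethylformamide with polyoxyethylene alkyl phenyl ether emulsifier, water-diluted and poured onto artificial diet. Five 3rd-instar Spodoptera litura larvae per cup, held at 25° C and 50-60% humidity. Mortality after 7 days expressed as pesticidal ratio.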
# [5] = active compound concentration 4 ppm
# [6] = active compound concentration 20 ppm
# [7] = active compound concentration 100 ppm
Compound,"insecticidal activity [1, 5]","acaricidal activity [2, 5]","insecticidal activity [3, 6]","acaricidal activity [2, 6]","insecticidal activity (pesticidal ratio) [4, 6]",also measured
CCC(=O)NCc1cnc(N2CCC(c3cc(Cl)c(F)c(Cl)c3F)(C(F)(F)F)C2O)cc1C(F)(F)F (stereo not shown) [A5-79],100%,100%,,,,insecticidal activity (by feeding damage degree) (Thrips palmi; [6]): 90%
O=C(NCc1ccc(N2CC(c3cc(Cl)c(Cl)c(Cl)c3)(C(F)(F)F)CC2O)nc1C(F)(F)F)C1CC1 (stereo not shown) [A′3-16],100%,,100%,,,
O=C(NCc1ccc(N2CCC(c3cc(Cl)c(Cl)c(C(F)(F)F)c3)(C(F)(F)F)C2O)cc1C(F)(F)F)C1CC1 (stereo not shown) [A1-352],100%,,100%,100%,,
CCC(=O)NCc1cnc(N2CCC(c3cc(Cl)cc(Cl)c3)(C(F)(F)F)C2O)nc1C(F)(F)F (stereo not shown) [A4-2],100%,,,,,
O=C(NCc1ccc(N2CCC(c3cc(F)c(F)c(F)c3)(C(F)(F)F)C2O)nc1C(F)(F)F)C1CC1 (mixture of isomers) [A3-192],100%,,100%,,,
CCC(=O)NCc1ccc(N2CCC(c3cc(Cl)c(Cl)c(Cl)c3)(C(F)(F)F)C2O)cc1CC (mixture of isomers) [A1-140],100%,98%,,,,
CC(=O)NCc1cnc(N2CCC(c3cc(Cl)c(F)c(Cl)c3F)(C(F)(F)F)C2O)cc1C(F)(F)F (stereo not shown) [A5-78],100%,100%,100%,,,
CS(=O)(=O)CC(=O)NCc1cnc(N2CCC(c3cc(Cl)cc(Cl)c3)(C(F)(F)F)C2O)nc1C(F)(F)F (stereo not shown) [A4-11],100%,100%,,,,insecticidal activity (by feeding damage degree) (Thrips palmi; [6]): 90%
CCC(=O)NCc1ccc(N2CCC(c3cc(F)c(F)c(F)c3)(C(F)(F)F)C2O)nc1C(F)(F)F (mixture of isomers) [A3-189],80%,,100%,,,
CCC(=O)NCc1ccc(N2CCC(c3cc(Cl)c(Cl)c(C(F)(F)F)c3)(C(F)(F)F)C2O)cc1C(F)(F)F (stereo not shown) [A1-349],100%,,100%,100%,,
O=C(NCc1ccc(N2CCC(c3cc(C(F)(F)F)cc(C(F)(F)F)c3)(C(F)(F)F)C2=O)cc1Cl)C1CC1 (stereo not shown) [B1-27],,,,,100%,"insecticidal activity [1, 6]: 100%"
O=C(NCc1ccc(N2CCC(c3cc(Cl)c(Cl)c(Cl)c3)(C(F)(F)F)C2=O)nc1C(F)(F)F)C1CC1 (stereo not shown) [B3-16],,,,,100%,"insecticidal activity [1, 6]: 100%"
O=C(NCc1ccc(N2CC(c3cc(C(F)(F)F)cc(C(F)(F)F)c3)(C(F)(F)F)CC2=O)nc1Cl)C1CC1 (stereo not shown) [C1-27],,,100%,,100%,"insecticidal activity [1, 6]: 100%"
CCC(=O)NCc1ccc(N2CCC(c3cc(F)cc(Cl)c3)(C(F)(F)F)C2O)nc1C(F)(F)F (mixture of isomers) [A3-167],80%,,,90%,,
CCC(=O)NC(C)c1ccc(N2CCC(c3cc(Cl)c(Cl)c(Cl)c3)(C(F)(F)F)C2O)cc1 (mixture of isomers) [A2-13],,,,100%,100%,"insecticidal activity [1, 6]: 100%"
O=C(NCc1ccc(N2CCC(c3cc(Cl)c(Cl)c(Cl)c3)(C(F)(F)F)C2O)nc1C(F)(F)F)C1CC1 (stereo not shown) [A3-16],,,100%,100%,100%,"insecticidal activity [1, 6]: 100%"
CCc1nc(N2CCC(c3cc(Cl)c(Cl)c(Cl)c3)(C(F)(F)F)C2O)ccc1CNC(=O)C1CC1 (stereo not shown) [A3-93],100%,,100%,100%,,

Compound,"insecticidal activity [1, 5]","acaricidal activity [2, 5]","insecticidal activity [3, 6]","acaricidal activity [2, 6]","insecticidal activity (pesticidal ratio) [4, 6]",also measured
CCC(=O)NCc1cnc(N2CCC(c3cc(C(F)(F)F)cc(C(F)(F)F)c3)(C(F)(F)F)C2O)cc1C(F)(F)F (stereo not shown) [A5-24],,,100%,100%,100%,"insecticidal activity (pesticidal ratio) [4, 5]: 100%; insecticidal activity [3, 5]: 100%; insecticidal activity (by feeding damage degree) (Thrips palmi; [6]): 90%"
CC(=O)NCc1ccc(N2CCC(c3cc(Cl)c(F)c(Cl)c3)(C(F)(F)F)C2O)cc1C(F)(F)F (stereo not shown) [A1-271],100%,100%,,,,
O=C(NCc1ccc(N2CCC(c3cc(Cl)c(F)c(Cl)c3F)(C(F)(F)F)C2O)cc1Br)C1CC1 (stereo not shown) [A1-433],,100%,,,,"insecticidal activity (pesticidal ratio) [4, 5]: 100%; insecticidal activity [3, 5]: 100%; insecticidal activity (by feeding damage degree) (Thrips palmi; [6]): 90%"
O=C(NCc1ccc(N2CC(c3cc(Cl)c(Cl)c(Cl)c3)(C(F)(F)F)CC2=O)nc1C(F)(F)F)C1CC1 (stereo not shown) [C3-16],,,,,100%,"insecticidal activity [1, 6]: 100%"
CC(=O)NCc1ccc(N2CCC(c3cc(C(F)(F)F)cc(C(F)(F)F)c3)(C(F)(F)F)C2O)cc1C(F)(F)F (mixture of isomers) [A1-56],,100%,,,,"insecticidal activity (pesticidal ratio) [4, 5]: 100%; insecticidal activity [3, 5]: 100%; insecticidal activity (by feeding damage degree) (Thrips palmi; [6]): 98%"
CC(=O)NCc1ccc(N2CCC(c3cc(Cl)cc(C(F)(F)F)c3)(C(F)(F)F)C2O)nc1C(F)(F)F (mixture of isomers) [A3-265],,,100%,100%,100%,"insecticidal activity (pesticidal ratio) [4, 5]: 100%; insecticidal activity [3, 5]: 100%; insecticidal activity (by feeding damage degree) (Thrips palmi; [6]): 90%"
Cc1nc(N2CCC(c3cc(Cl)c(Cl)c(Cl)c3)(C(F)(F)F)C2O)ncc1CNC(=O)C1CC1 (stereo not shown) [A4-49],,98%,100%,,100%,"insecticidal activity (pesticidal ratio) [4, 5]: 100%; insecticidal activity (by feeding damage degree) (Thrips palmi; [6]): 98%"
O=C(CC(F)(F)F)NCc1ccc(N2CCC(c3cc(Cl)cc(Cl)c3)(C(F)(F)F)C2O)cc1F (mixture of isomers) [A1-101],80%,100%,100%,,,
O=C(NCc1ccc(N2CCC(c3cc(C(F)(F)F)cc(C(F)(F)F)c3)(C(F)(F)F)C2O)nc1C(F)(F)F)C1CC1 (stereo not shown) [A3-27],,,100%,100%,100%,"insecticidal activity [1, 6]: 100%"
CC(=O)NCc1ccc(N2CCC(c3cc(Cl)c(F)c(Cl)c3F)(C(F)(F)F)C2O)nc1C(F)(F)F (mixture of isomers) [A3-210],100%,100%,100%,,,
CCC(=O)NCc1cc(F)c(N2CCC(c3cc(C(F)(F)F)cc(C(F)(F)F)c3)(C(F)(F)F)C2O)nc1Cl (stereo not shown) [A3-378],,,,,,"insecticidal activity (pesticidal ratio) [4, 5]: 100%; insecticidal activity [3, 5]: 100%; acaricidal activity [2, 7]: 98%; insecticidal activity (by feeding damage degree) (Thrips palmi; [7]): 90%"
CC(=O)NCc1ccc(N2CCC(c3cc(Cl)c(Cl)c(C(F)(F)F)c3)(C(F)(F)F)C2O)cc1C(F)(F)F (stereo not shown) [A1-348],100%,,100%,100%,,
CCC(=O)NCc1ccc(N2CCC(c3cc(F)cc(C(F)(F)F)c3)(C(F)(F)F)C2O)cc1C(F)(F)F (stereo not shown) [A1-316],,100%,100%,100%,100%,"insecticidal activity (pesticidal ratio) [4, 5]: 100%; insecticidal activity [3, 5]: 100%; insecticidal activity (by feeding damage degree) (Thrips palmi; [6]): 90%"
CC(=O)NCc1cnc(N2CCC(c3cc(Cl)c(F)c(Cl)c3F)(C(F)(F)F)C2O)nc1C(F)(F)F (stereo not shown) [A4-111],100%,100%,100%,,,
CCC(=O)NCc1ccc(N2CCC(c3cc(C(F)(F)F)cc(C(F)(F)F)c3)(C(F)(F)F)C2O)cc1CC (mixture of isomers) [A1-195],100%,100%,100%,,,
CC(NC(=O)C1CC1)c1ccc(N2CC(c3cc(C(F)(F)F)cc(C(F)(F)F)c3)(C(F)(F)F)CC2=O)cc1 (stereo not shown) [C2-27-b],,,100%,100%,100%,"insecticidal activity [1, 6]: 100%"
